Measurements published in patent publication US20240287089A1, “Preparation and Uses of 7-Azaindenoisoquinolines” (Purdue Research Foundation, priority 0001, published 2024).

Tests used:
Caco-2 cells = assay: Caco-2 permeability; assay type: in vitro ADME; conditions: for Efflux Ratio / Recovery (%)AP-BL / Recovery (%)BL-AP: Caco-2; for Papp (A→B) / Papp (B→A): Caco-2, 5 μM, 2 h
Protocol: Caco-2 Permeability Studies. The Caco-2 plate was removed from the incubator and washed twice with pre-warmed HBSS (10 mM HEPES, pH 7.4), and then incubated at 37° C. for 30 min. The stock solutions of controls compounds were diluted in DMSO to get 1 mM solutions and then diluted with HBSS (10 mM HEPES, pH 7.4) to get 5 μM working solutions. The stock solutions of the test compounds were diluted in DMSO to get 1 mM solutions and then diluted with HBSS (10 mM HEPES, pH 7.4) to get 5 μM working solutions. The final concentration of DMSO in the incubation system was 0.5%. To determine the rate of drug transport in the apical to basolateral direction, 75 μL of 5 μM working solutions of test compounds was added to the Transwell insert (apical compartment) and the wells in the receiver plate (basolateral compartment) were filled with 235 μL of HBSS (10 mM HEPES, pH 7.4). To determine the rate of drug transport in the basolateral to apical direction, 235 μL of 5 μM working solutions of test compounds were to the receiver plate wells (basolateral compartment) and then the Transwell inserts (apical compartment) were filled with 75 μL of HBSS (10 mM HEPES, pH 7.4). Time 0 samples were prepared by transferring 50 μL of 5 μM working solution to wells of the 96-deepwell plate, followed by the addition of 200 μL cold methanol containing appropriate internal standards (IS). The plates were incubated at 37° C. for 2 h. […] An aliquot of 100 μL of the supernatant was mixed with an appropriate volume of ultra-pure water before LC-MS/MS analysis. To determine the Lucifer Yellow leakage after 2 h transport period, stock solution of Lucifer yellow was prepared in ultra-pure water and diluted with HBSS (10 mM HEPES, pH 7.4) to reach the final concentration of 100 μM and then 100 μL of the Lucifer yellow solution was added to each Transwell insert (apical compartment), followed by filling the wells in the receiver plate (basolateral compartment) with 300 μL of HBSS (10 mM HEPES, pH 7.4). The plates were incubated at 37° C. for 30 minutes. Samples (80 μL) were removed directly from the apical and basolateral wells (using the basolateral access holes) and transferred to wells of new 96 wells plates.

DU-145 (Prostate) = assay: NCI-60 cytotoxicity assay; assay type: cell-based, human; conditions: Homo sapiens; DU-145 prostate; 48 h, sulforhodamine B; read-out: Comparative Cytotoxicity GI50, Prostate DU-145
Protocol: (§1) The antiproliferative activities of the indenoisquinoline compounds are determined in the NCI-60 cancer cell lines of the National Cancer Institute Developmental Therapeutics Program (NCI-DTP). […] Cancer cells are incubated with the test compounds at five concentrations ranging from 100 μM to 10 nM for 48 h. After the treated cancer cells are stained with sulforhodamine B dye, the percentage growth is plotted as a function of the common logarithm of the tested compound concentration. […] The approximate average of GI50 values across the entire panel of NCI-60 cancer cell lines for each compound is recorded as the MGM value.
(§2) NCI-60 Cytotoxicity Assay. Compounds were submitted to the National Cancer Institute Developmental Therapeutic Program to determine their growth-inhibitory potentials in NCI-60 cell lines. All compounds satisfied the pre-screening proceeded into the 5-dose cell viability assay, in which cells were treated for 48 h at 5 dosages ranging from 100 μM to 10 nM.

HCT-116 (Colon) = assay: NCI-60 cytotoxicity assay; assay type: cell-based, human; conditions: Homo sapiens; HCT-116 colon; 48 h, sulforhodamine B; read-out: Comparative Cytotoxicity GI50, Colon HCT-116
Protocol: as §1, §2

HOP-62 (Lung) = assay: NCI-60 cytotoxicity assay; assay type: cell-based, human; conditions: Homo sapiens; HOP-62 lung; 48 h, sulforhodamine B; read-out: Comparative Cytotoxicity GI50, Lung HOP-62
Protocol: as §1, §2

MCF7 (Breast) = assay: NCI-60 cytotoxicity assay; assay type: cell-based, human; conditions: Homo sapiens; MCF7 breast; 48 h, sulforhodamine B; read-out: Comparative Cytotoxicity GI50, Breast MCE7
Protocol: as §1, §2

OVCAR-3 (Ovarian) = assay: NCI-60 cytotoxicity assay; assay type: cell-based, human; conditions: Homo sapiens; OVCAR-3 ovarian; 48 h, sulforhodamine B; read-out: Comparative Cytotoxicity GI50, Ovarian OVCAR-3
Protocol: as §1, §2

SN12C (Renal) = assay: NCI-60 cytotoxicity assay; assay type: cell-based, human; conditions: Homo sapiens; SN12C renal; 48 h, sulforhodamine B; read-out: Comparative Cytotoxicity GI50, Renal SN12C
Protocol: as §1, §2

UACC-62 (Melanoma) = assay: NCI-60 cytotoxicity assay; assay type: cell-based, human; conditions: Homo sapiens; UACC-62 melanoma; 48 h, sulforhodamine B; read-out: Comparative Cytotoxicity GI50, Melanoma UACC-62
Protocol: as §1, §2

SF-539 (CNS) = assay: NCI-60 cytotoxicity assay; assay type: cell-based; conditions: Homo sapiens; SF-539 CNS; 48 h, sulforhodamine B; read-out: Comparative Cytotoxicity GI50, CNS SF-539
Protocol: as §1, §2

NCI-60 cancer cell lines = assay: NCI-60 cytotoxicity assay, MGM; assay type: cell-based; conditions: Homo sapiens; entire panel of NCI-60 cancer cell lines; read-out: MGM (approximate average of GI50 values across the NCI-60 panel)
Protocol: as §1, §2

Row | SMILES | Efflux Ratio (Caco-2 cells) | Recovery (%)AP-BL (Caco-2 cells) [%] | Recovery (%)BL-AP (Caco-2 cells) [%] | Papp (A→B) (Caco-2 cells) | Papp (B→A) (Caco-2 cells) | GI50 (DU-145 (Prostate)) [nM] | GI50 (HCT-116 (Colon)) [nM] | GI50 (HOP-62 (Lung)) [nM] | GI50 (MCF7 (Breast)) [nM] | GI50 (OVCAR-3 (Ovarian)) [nM] | GI50 (SN12C (Renal)) [nM] | GI50 (UACC-62 (Melanoma)) [nM] | GI50 (SF-539 (CNS)) [nM] | GI50 (NCI-60 cancer cell lines) [nM]
1 | C[C@H]1O[C@@H](O[C@H]2[C@@H](O)C[C@H](O[C@H]3[C@@H](O)C[C@H](O[C@H]4CC[C@@]5(C)[C@H](CC[C@@H]6[C@@H]5C[C@@H](O)[C@]5(C)[C@@H](C7=CC(=O)OC7)CC[C@]65O)C4)O[C@@H]3C)O[C@@H]2C)C[C@H](O)[C@@H]1O [Digoxin] | 25.25 | 88.64 | 106.70 | 0.74 10^−6, cm/s | 18.71 10^−6, cm/s | – | – | – | – | – | – | – | – | –
2 | COc1cc2c3c(n(CCCNC4CCCCC4)c(=O)c2cc1OC)-c1cc2c(cc1C3=O)OCO2 [A7] | – | – | – | – | – | 1840 | 1320 | 15900 | 1060 | 11000 | 18600 | 28400 | 7740 | 6020
3 | COc1cnc2c(c1)C(=O)c1c-2n(CCCn2ccnc2)c(=O)c2cc(OC)c(OC)cc12 [A8] | – | – | – | – | – | 61 | 110 | 42 | 30 | 600 | 56 | 40 | 53 | 240
4 | CC(C)NCC(O)COc1cccc2ccccc12 (stereo not shown) [Propranolol] | 0.70 | 80.74 | 92.73 | 25.34 10^−6, cm/s | 17.63 10^−6, cm/s | – | – | – | – | – | – | – | – | –
5 | CCNCCCn1c2c(c3cc(OC)c(OC)cc3c1=O)C(=O)c1cc(OC)cnc1-2 [A9] | – | – | – | – | – | 2160 | 420 | 320 | 160 | 3600 | 1440 | 700 | 800 | 1540
